Test results published in patent publication US9096832B2, “Differentiation of human embryonic stem cells” (LifeScan, Inc., priority 2007, dated 2015).

System: H9 embryonic stem cells
Experiment: Microarray analysis of definitive endoderm stage cells on […] or MEFs +/- Wnt-3a (Table VI)
Type: cell-based, human
Conditions: for mean normalized intensity: ESTs: DE treatment in low serum on MEFS, log format
Experimental: Controls for each group included cells plated on [sequence]—coated dishes and cultured in MEF-conditioned medium or cells plated on MEFs and cultured in ES medium. All groups contained three biological replicates and each biological replicate was repeated on two separate gene chips.
Sample preparation, hybridization, and image analysis were performed according to the Affymetrix Human Genome U133 Plus 2.0 Array. Following normalization and a log transformation, data analysis was performed using OmniViz® software (MA) and [sequence] […] Significant differences in gene expression between the samples were evaluated using analysis of variance and an F-test with adjusted P-value (Benjamini and Hochberg correction) of less-than or equal to 0.05. Only genes with a present call in at least one group were included in the analysis.

For “Activin A: activin A (a member of the TGFβ superfamily), R&D Systems; 'w/o wnt' in Table VII = 100 ng/ml Activin A without Wnt3a”, the “mean normalized intensity: ESTs” value (gene line r2134) was −0.9461, the “mean normalized intensity: ESTs” value (gene line r2148) was 5.334 and the “Intensity (log): 6-phosphofructo-2-kinasefructose-2,6-biphosphatase 4” value (low serum, on MATRIGEL) was −0.2429. For the same substance, the “Intensity (log): ESTs, Highly similar to IHH_HUMAN INDIAN HEDGEHOG PROTEIN PRECURSOR (H. sapiens)” value (low serum, on MATRIGEL) was −0.654, the “Intensity (log): ESTs, Moderately similar to JE0284 Mm-1 cell derived transplantability-associated protein 1b (H. sapiens)” value (low serum, on MATRIGEL) was −2.377 and the “Intensity (log): ESTs, Weakly similar to FCE2 MOUSE LOW AFFINITY IMMUNOGLOBULIN EPSILON FC RECEPTOR (M. musculus)” value (low serum, on MATRIGEL) was 0.4942. For the same substance, the “Intensity (log): ESTs, Weakly similar to the 331st table hypothetical protein KIAA0555 (H. sapiens)” value (low serum, on MATRIGEL) was −1.574, the “Intensity (log): G protein-coupled receptor” value (low serum, on MATRIGEL) was 1.507 and the “Intensity (log): G protein-coupled receptor 49” value (low serum, on MATRIGEL) was 0.2655. For the same substance, the “Intensity (log): Homo sapiens Kell blood group (KEL), mRNA” value (low serum, on MATRIGEL) was −2.205, the “Intensity (log): Homo sapiens MLL septin-like fusion (MSF), mRNA” value (low serum, on MATRIGEL) was −3.292 and the “Intensity (log): Homo sapiens Mix-like homeobox protein 1 (MILD1) mRNA, complete cds” value (low serum, on MATRIGEL) was −1.546. The “Intensity (log): Homo sapiens Rho GTPase activating protein 6 (ARHGAP6), transcript variant 2, mRNA” value (low serum, on MATRIGEL) was −1.104, the “Intensity (log): Homo sapiens TBX3-iso protein (TBX3-iso), mRNA” value (low serum, on MATRIGEL) was −2.346 and the “Intensity (log): Homo sapiens angiopoietin 2 (ANGPT2), mRNA” value (low serum, on MATRIGEL) was −2.93. The “Intensity (log): Homo sapiens ankyrin-like with transmembrane domains 1 (ANKTM1), mRNA” value (low serum, on MATRIGEL) was −1.109, the “Intensity (log): Homo sapiens apolipoprotein A-I (APOA1), mRNA” value (low serum, on MATRIGEL) was −1.471 and the “Intensity (log): Homo sapiens apolipoprotein A-II (APOA2), mRNA” value (low serum, on MATRIGEL) was −1.033. For the same substance, the “Intensity (log): Homo sapiens arylsulfatase E (chondrodysplasia punctata 1) (ARSE), mRNA” value (low serum, on MATRIGEL) was 0.283, the “Intensity (log): Homo sapiens atrophin-1 interacting protein 1; activin receptor interacting protein 1 (KIAA0705), mRNA” value (low serum, on MATRIGEL) was −4.308 and the “Intensity (log): Homo sapiens beta-site APP cleaving enzyme (BACE) mRNA, complete cds” value (low serum, on MATRIGEL) was −2.0354. The “Intensity (log): Homo sapiens cDNA FLJ11550 fis, clone HEMBA1002970” value (low serum, on MATRIGEL) was −1.222, the “Intensity (log): Homo sapiens cDNA FLJ12993 fis, clone NT2RP3000197” value (low serum, on MATRIGEL) was 0.1473 and the “Intensity (log): Homo sapiens cDNA FLJ13221 fis, clone NT2RP4002075” value (low serum, on MATRIGEL) was 0.3557. For the same substance, the “Intensity (log): Homo sapiens cardiac ventricular troponin C mRNA, complete cds” value (low serum, on MATRIGEL) was −0.5497, the “Intensity (log): Homo sapiens cartilage linking protein 1 (CRTL1), mRNA” value (low serum, on MATRIGEL) was −1.315 and the “Intensity (log): Homo sapiens cell adhesion molecule with homology to L1CAM (close homologue of L1) (CHL1), mRNA” value (low serum, on MATRIGEL) was −0.5412. The “Intensity (log): Homo sapiens chromosome 19, cosmid R31181” value (low serum, on MATRIGEL) was −0.2589, the “Intensity (log): Homo sapiens clone 23736 mRNA sequence” value (low serum, on MATRIGEL) was −0.04718 and the “Intensity (log): Homo sapiens cryptic mRNA, complete cds” value (low serum, on MATRIGEL) was 0.1049. The “Intensity (log): Homo sapiens cystatin S (CST4), mRNA” value (low serum, on MATRIGEL) was 0.9245, the “Intensity (log): Homo sapiens cystatin SA (CST2), mRNA” value (low serum, on MATRIGEL) was −0.1022 and the “Intensity (log): Homo sapiens cystatin SN (CST1), mRNA” value (low serum, on MATRIGEL) was 0.07293. The “Intensity (log): Homo sapiens cytidine deaminase (CDA), mRNA” value (low serum, on MATRIGEL) was −3.891, the “Intensity (log): Homo sapiens dual specificity phosphatase 4 (DUSP4), mRNA” value (low serum, on MATRIGEL) was 0.9539 and the “Intensity (log): Homo sapiens fibroblast growth factor 8 (androgen-induced) (FGF8), mRNA” value (low serum, on MATRIGEL) was −4.328. The “Intensity (log): Homo sapiens fibroblast growth factor 17 (FGF17), mRNA” value (low serum, on MATRIGEL) was −0.8946, the “Intensity (log): Homo sapiens frizzled-related protein (FRZB), mRNA” value (low serum, on MATRIGEL) was 0.565 and the “Intensity (log): Homo sapiens gastrin-releasing peptide (GRP), mRNA” value (low serum, on MATRIGEL) was −2.741. For the same substance, the “Intensity (log): Homo sapiens glycophorin E (GYPE), mRNA” value (low serum, on MATRIGEL) was −2.016, the “Intensity (log): Homo sapiens glycophorin Erik STA (GPErik) gene complete cds” value (low serum, on MATRIGEL) was −1.194 and the “Intensity (log): Homo sapiens growth differentiation factor 3 (GDF3), mRNA” value (low serum, on MATRIGEL) was 1.673. The “Intensity (log): Homo sapiens haptoglobin (HP), mRNA” value (low serum, on MATRIGEL) was −1.101, the “Intensity (log): Homo sapiens haptoglobin-related protein (HPR), mRNA” value (low serum, on MATRIGEL) was −2.6068 and the “Intensity (log): Homo sapiens homeobox protein goosecoid mRNA, complete cds” value (low serum, on MATRIGEL) was −4.42. The “Intensity (log): Homo sapiens hypothetical protein FLJ10718 (FLJ10718), mRNA” value (low serum, on MATRIGEL) was 2.605, the “Intensity (log): Homo sapiens hypothetical protein FLJ10970 (FLJ10970), mRNA” value (low serum, on MATRIGEL) was −0.432 and the “Intensity (log): Homo sapiens hypothetical protein FLJ11316 (FLJ11316), mRNA” value (low serum, on MATRIGEL) was −0.9047. The “Intensity (log): Homo sapiens hypothetical protein FLJ22252 similar to SRY-box containing gene 17 (FLJ22252), mRNA” value (low serum, on MATRIGEL) was 1.368, the “Intensity (log): Homo sapiens lumican (LUM), mRNA” value (low serum, on MATRIGEL) was −4.057 and the “Intensity (log): Homo sapiens mRNA for GATA-6, complete cds” value (low serum, on MATRIGEL) was 2.219. The “Intensity (log): Homo sapiens mRNA for KIAA1409 protein, partial cds” value (low serum, on MATRIGEL) was 0.3683, the “Intensity (log): Homo sapiens mRNA; cDNA DKFZp434D0818 (from clone DKFZp434D0818)” value (low serum, on MATRIGEL) was −2.634 and the “Intensity (log): Homo sapiens mRNA; cDNA DKFZp586J0624 (from clone DKFZp586J0624); complete cds” value (low serum, on MATRIGEL) was −0.8352. The “Intensity (log): Homo sapiens presenilin stabilization factor b (PSF) mRNA, complete cds; alternatively spliced” value (low serum, on MATRIGEL) was −0.8617, the “Intensity (log): Homo sapiens reserved (KCNK12), mRNA” value (low serum, on MATRIGEL) was −0.4687 and the “Intensity (log): Homo sapiens retinoid X receptor, gamma (RXRG), mRNA” value (low serum, on MATRIGEL) was −2.375. For the same substance, the “Intensity (log): Homo sapiens sema domain, immunoglobulin domain (Ig), short basic domain, secreted, (semaphorin) 3E (SEMA3E), mRNA” value (low serum, on MATRIGEL) was −0.786, the “Intensity (log): Homo sapiens sema domain, seven thrombospondin repeats (type 1 and type 1-like), transmembrane domain (TM) and short cytoplasmic domain, (semaphorin) 5A (SEMA5A), mRNA” value (low serum, on MATRIGEL) was −1.533 and the “Intensity (log): Homo sapiens solute carrier family 21 (prostaglandin transporter), member 2 (SLC21A2), mRNA” value (low serum, on MATRIGEL) was 0.7114. The “Intensity (log): Homo sapiens type VI collagen alpha 2 chain precursor (COL6A2) mRNA, complete cds, alternatively spliced” value (low serum, on MATRIGEL) was 1.7011, the “Intensity (log): Homo sapiens, alpha-1 (VI) collagen” value (low serum, on MATRIGEL) was −3.662 and the “Intensity (log): Homo sapiens, clone MGC: 4655, mRNA, complete cds” value (low serum, on MATRIGEL) was 2.3772. The “Intensity (log): Human (clone 8B1) Br-cadherin mRNA, complete cds” value (low serum, on MATRIGEL) was −2.179, the “Intensity (log): Human (clone HSY3RR) neuropeptide Y receptor (NPYR) mRNA, complete cds” value (low serum, on MATRIGEL) was 1.775 and the “Intensity (log): Human DNA sequence from clone RP1-181C24 on chromosome 6p11.1-12.2. Contains the 3 end of the BMP5 gene for bone morphogenetic protein 5, ESTs, STSs and GSSs” value (low serum, on MATRIGEL) was −3.723. The “Intensity (log): Human Fritz mRNA, complete cds” value (low serum, on MATRIGEL) was 0.4366, the “Intensity (log): Human dipeptidyl peptidase IV (CD26) mRNA, complete cds” value (low serum, on MATRIGEL) was −3.611 and the “Intensity (log): Human glycophorin HeP2 mRNA, partial cds” value (low serum, on MATRIGEL) was −0.8435. For the same substance, the “Intensity (log): Human link protein mRNA, complete cds” value (low serum, on MATRIGEL) was −1.94, the “Intensity (log): Human mRNA for alpha-1 type II collagen” value (low serum, on MATRIGEL) was −2.8736 and the “Intensity (log): Human mRNA for apolipoprotein AI (apo AI)” value (low serum, on MATRIGEL) was 0.2151. The “Intensity (log): Human prostatic secretory protein 57 mRNA, complete cds” value (low serum, on MATRIGEL) was −3.013, the “Intensity (log): KIAA1462 protein” value (low serum, on MATRIGEL) was −3.846 and the “Intensity (log): MCP-1 = monocyte chemotactic protein (human, aortic endothelial cells, mRNA, 661 nt)” value (low serum, on MATRIGEL) was −2.276. The “Intensity (log): Rho GDP dissociation inhibitor (GDI) alpha” value (low serum, on MATRIGEL) was −1.544, the “Intensity (log): WAS protein family, member 2” value (low serum, on MATRIGEL) was −2.187 and the “Intensity (log): collagen, type IX, alpha 2” value (low serum, on MATRIGEL) was 1.27. For the same substance, the “Intensity (log): collagen, type VI, alpha 1” value (low serum, on MATRIGEL) was −1.418, the “Intensity (log): hepatocyte nuclear factor 4, alpha” value (low serum, on MATRIGEL) was −4.266 and the “Intensity (log): homeo box HB9” value (low serum, on MATRIGEL) was −1.656. The “Intensity (log): hypothetical protein FLJ21032” value (low serum, on MATRIGEL) was 0.3557, the “Intensity (log): hypothetical protein FLJ23091” value (low serum, on MATRIGEL) was 0.3234 and the “Intensity (log): microfibrillar-associated protein 4” value (low serum, on MATRIGEL) was 0.06379. For the same substance, the “Intensity (log): myristoylated alanine-rich protein kinase C substrate (MARCKS, 80K-L)” value (low serum, on MATRIGEL) was −0.7172.
